Values quoted from earlier work as cited in US20200171007A1, “Methods of Treating Hepatorenal Syndrome and Hepatic Encephalopathy with Thromboxane-A2 Receptor Antagonists” (Cumberland Pharmaceuticals Inc., priority 2010, published 2020).
Where a SMILES comes first, the peptide text is derived from it. Bridges are numbered along the chain shown (N, C = ends). [ ]: non-standard residue; d: D form.

Key:
[1] = system: patients with cirrhosis, ascites, and hepatorenal syndrome; details: case series
[2] = system: patients with hepatorenal syndrome; details: intravenous, twelve patients
patients with cirrhosis = patients with cirrhosis / hepatorenal syndrome
[3] = system: patients with type 1 hepatorenal syndrome; details: nonpressor doses, with albumin
[4] = system: patients with hepatorenal syndrome; details: five studies
[5] = system: patients with hepatorenal syndrome; details: ornipressin and albumin
[6] = system: patients with type 1 hepatorenal syndrome; details: type 1 hepatorenal syndrome (octapressin); short-term use (ornipressin)
[7] = system: patients with hepatorenal syndrome
[8] = system: patients with type 1 hepatorenal syndrome
[9] = includes 2 patients who received liver transplantation

Q: For CC(C)C[C@@H]1NC(=O)[C@@H](C(C)C)NC(=O)[C@@H]2CCCN2C(=O)[C@@H](CC(=O)O)NC(=O)[C@@H](Cc2c[nH]c3ccccc23)NC1=O [BQ123] (cyclo(L[dW][dD]P[dV])), which “patients with improvement in the glomerular filtration rate” value [1] is on record?
A: Its value is 3 patients.

Q: For CC(=O)N[C@@H](CS)C(=O)O [NAC, N-acetylcysteine], which adverse effects [2] is on record?
A: The adverse effects was “without any adverse effects”.

Q: What about the “survival rate at 1 month” value [2, 9] of the same molecule?
A: The value was 67%.

Q: And the “survival rate at 3 months” value [2, 9]?
A: The value was 58%.

Q: For CNCC(=O)N[C@@H](CCCN=C(N)N)C(=O)N[C@H](C(=O)N[C@@H](Cc1ccc(O)cc1)C(=O)N[C@H](C(=O)N[C@@H](Cc1cnc[nH]1)C(=O)N1CCC[C@H]1C(=O)N[C@@H](C)C(=O)O)C(C)C)C(C)C [Saralasin], which “effect on blood pressure and renal function” value (patients with cirrhosis) is on record?
A: The value was “worsening hypotension and deterioration in renal function”.

Q: Which results are given for NCCc1ccc(O)c(O)c1 [dopamine]?
A: improvement in renal function [3]: none of the patients treated with dopamine showed any improvement in renal function; changes in renal plasma flow, glomerular filtration rate, or urine output [4]: none have reported significant changes

Q: What does the source list for NCCC[C@H](NC(=O)[C@@H]1CCCN1C(=O)[C@@H]1CSSC[C@H](N)C(=O)N[C@@H](Cc2ccc(O)cc2)C(=O)N[C@@H](Cc2ccccc2)C(=O)N[C@@H](CCC(N)=O)C(=O)N[C@@H](CC(N)=O)C(=O)N1)C(=O)NCC(N)=O [ornipressin]?
A: patients in whom treatment had to be discontinued because of complications (ischemic colitis, tongue ischemia, glossitis) ([5]; 8 patients, after fewer than 9 days): 4 patients; improvement in renal plasma flow and glomerular filtration rate ([5]; remaining 4 patients treated for 15 days): significant; Renal plasma flow and glomerular filtration rate [6]: significant increase

Q: Which “effect on blood pressure and renal function” value (patients with cirrhosis) does the source give for Cc1ccc(N(CC2=NCCN2)c2cccc(O)c2)cc1 [phentolamine] here?
A: Its value is “Poor results”.

Q: Which adverse ischemic effects ([7]; human, in vivo) does the source give for NCCCC[C@H](NC(=O)[C@@H]1CCCN1C(=O)[C@@H]1CSSC[C@H](NC(=O)CNC(=O)CNC(=O)CN)C(=O)N[C@@H](Cc2ccc(O)cc2)C(=O)N[C@@H](Cc2ccccc2)C(=O)N[C@@H](CCC(N)=O)C(=O)N[C@@H](CC(N)=O)C(=O)N1)C(=O)NCC(N)=O [terlipressin] (H-GGGCYFQNCPKG-NH2; disulfide 4-9) here?
A: Its adverse ischemic effects is “No adverse ischemic effects were reported”.

Q: What about the “Reversal of hepatorenal syndrome” value ([7]; terlipressin and albumin for 5-15 days, 9 patients treated) of the same molecule?
A: Its value is 7 of 9.

Q: And the “recurrent hepatorenal syndrome after treatment discontinuation” value ([8]; in conjunction with albumin)?
A: Its value is < 15%.

Q: What about the “improvement in glomerular filtration rate and reduction in serum creatinine levels to below 1.5 mg/dL, share of patients” value ([8]; in conjunction with albumin, type 1 hepatorenal syndrome) of the same molecule?
A: Its value is 60-75%.

Q: What about the Ischemic complications ([8]; in vivo) of the same molecule?
A: Its Ischemic complications is < 5%.
